This note sets out measurements from BindingDB's records for patent US20230339939 (Bayer Aktiengesellschaft, 2023).

One may read the IC50 as the concentration that gives 50% inhibition. A high value points to weaker potency in that assay.

Assay [1] addresses T1, Casein kinase I isoform alpha (Homo sapiens, UniProt P48729). The experiment in a line: CSNK1A1 Inhibitory activity Assay 2. The text has this: (§1) Recombinant fusion protein of N-terminal Glutathion-S-Transferase (GST) and full-length human CSNK1A1, expressed by baculovirus infected insect cells and purified via Glutathion affinity chromatography, was purchased from Life Technologies (product no. PV4174) and used as enzyme. As substrate for the kinase reaction the biotinylated peptide biotin-Ahx-KRRRAL-pS-VASLPGL (C-terminus in amide form) was used which can be purchased e.g. from the company Biosyntan (Berlin-Buch, Germany). For the assay 50 nl of a 100 fold concentrated solution of the test compound in DMSO was pipetted into a white low volume 384-well microtiter plate (Greiner Bio-One, Frickenhausen, Germany), 2 μL of a solution of CSNK1A1 in aqueous assay buffer [50 mM HEPES pH 7.5, 10% (v/v) glycerol, 10 mM MgCl2, 50 mM NaCl, 1 mM dithiothreitol, 0.01% (w/v) bovine serum albumin, 0.01% (v/v) Triton X-100] were added and the mixture was incubated for 15 min at 22 C. to allow pre-binding of the test compounds to the enzyme before the start of the kinase reaction. […] Subsequently 2.5 μL of the kinase detection reagent (1.2 fold more concentrated than recommended by the producer) were added, the resulting mixture was incubated at 22 C. for 1 h and then the luminescence measured with a suitable measurement instrument (e.g. Viewlux from Perkin-Elmer).

Assay [2] deals with T1, Casein kinase I isoform alpha. The experiment in a line: CSNK1A1 High ATP Assay.
Text: as §1

For assay [3], the target named is Casein kinase I isoform delta (Homo sapiens, UniProt P48730). The experiment in a line: CSNK1D-Inhibitory Activity Assay. The protocol:
as §1, with “CSNK1D,” for “CSNK1A1,”, “PV3665)” for “PV4174)”, “Btn-Ahx-[…]” for “biotin-Ahx-KRRRAL-pS-VASLPGL”, “1536-well” for “low volume 384-well”, “CSNK1D” for “CSNK1A1”

Assay [4] addresses Epidermal growth factor receptor (Homo sapiens, UniProt P00533). The experiment in a line: WT-EGFR Kinase Assay. The protocol: For the assay 50 nl of a 100 fold concentrated solution of the test compound in DMSO was pipetted into either a black low volume 384 well microtiter plate or a black 1536 well microtiter plate (both Greiner Bio-One, Frickenhausen, Germany), 2 μL of a solution of EGFR in aqueous assay buffer [50 mM Hepes pH 7.0, 10 mM MgCl2, 1 mM dithiothreitol, 0.5 mM EGTA, 0.3 mM activated sodium ortho-vanadate, 0.005% (w/v) bovine serum albumin, 0.005% (v/v) Tween-20] were added and the mixture was incubated for 15 min at 22° C. to allow pre-binding of the test compounds to the enzyme before the start of the kinase reaction. […] The concentration of EGFR was adjusted depending of the activity of the enzyme lot and was chosen appropriate to have the assay in the linear range, typical concentration was 7.6 pg/μL. The reaction was stopped by the addition of 3 μL of a solution of HTRF detection reagents (83.3 nM streptavidine-XL665 [Cisbio Bioassays, Codolet, France] and 1.67 nM PT66-Tb-Cryptate, a terbium-cryptate labelled anti-phospho-tyrosine antibody from Cisbio Bioassays [instead of the PT66-Tb-cryptate PT66-Eu-Chelate from Perkin Elmer can also be used]) in an aqueous EDTA-solution (133.3 mM EDTA, 0.2% (w/v) bovine serum albumin in 50 mM HEPES pH 7.5). […]

T1 sequence (P48729 whole entry, the tested form may be a part, canonical isoform): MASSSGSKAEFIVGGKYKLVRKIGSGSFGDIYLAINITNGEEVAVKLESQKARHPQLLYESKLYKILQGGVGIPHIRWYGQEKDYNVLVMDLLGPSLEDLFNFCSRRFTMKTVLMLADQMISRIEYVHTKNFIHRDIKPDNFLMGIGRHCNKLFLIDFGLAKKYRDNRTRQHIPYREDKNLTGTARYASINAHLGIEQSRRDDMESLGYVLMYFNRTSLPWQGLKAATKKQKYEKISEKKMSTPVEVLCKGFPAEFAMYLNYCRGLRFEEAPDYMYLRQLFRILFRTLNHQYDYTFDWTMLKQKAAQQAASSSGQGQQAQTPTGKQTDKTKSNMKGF
Sequence of Casein kinase I isoform delta (P48730 whole entry, canonical isoform): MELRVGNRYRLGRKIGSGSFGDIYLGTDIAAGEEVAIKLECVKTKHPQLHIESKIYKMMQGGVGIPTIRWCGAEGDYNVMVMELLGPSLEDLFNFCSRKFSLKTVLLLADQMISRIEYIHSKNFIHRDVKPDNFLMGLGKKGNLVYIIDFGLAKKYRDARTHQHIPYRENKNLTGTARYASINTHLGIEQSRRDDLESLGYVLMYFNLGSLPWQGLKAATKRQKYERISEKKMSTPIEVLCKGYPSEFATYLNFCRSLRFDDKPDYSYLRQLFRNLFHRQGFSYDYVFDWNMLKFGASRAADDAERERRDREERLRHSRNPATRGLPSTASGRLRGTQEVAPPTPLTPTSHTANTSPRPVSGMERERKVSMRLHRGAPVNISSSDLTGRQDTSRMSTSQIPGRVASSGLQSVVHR
Sequence of Epidermal growth factor receptor (P00533 whole entry): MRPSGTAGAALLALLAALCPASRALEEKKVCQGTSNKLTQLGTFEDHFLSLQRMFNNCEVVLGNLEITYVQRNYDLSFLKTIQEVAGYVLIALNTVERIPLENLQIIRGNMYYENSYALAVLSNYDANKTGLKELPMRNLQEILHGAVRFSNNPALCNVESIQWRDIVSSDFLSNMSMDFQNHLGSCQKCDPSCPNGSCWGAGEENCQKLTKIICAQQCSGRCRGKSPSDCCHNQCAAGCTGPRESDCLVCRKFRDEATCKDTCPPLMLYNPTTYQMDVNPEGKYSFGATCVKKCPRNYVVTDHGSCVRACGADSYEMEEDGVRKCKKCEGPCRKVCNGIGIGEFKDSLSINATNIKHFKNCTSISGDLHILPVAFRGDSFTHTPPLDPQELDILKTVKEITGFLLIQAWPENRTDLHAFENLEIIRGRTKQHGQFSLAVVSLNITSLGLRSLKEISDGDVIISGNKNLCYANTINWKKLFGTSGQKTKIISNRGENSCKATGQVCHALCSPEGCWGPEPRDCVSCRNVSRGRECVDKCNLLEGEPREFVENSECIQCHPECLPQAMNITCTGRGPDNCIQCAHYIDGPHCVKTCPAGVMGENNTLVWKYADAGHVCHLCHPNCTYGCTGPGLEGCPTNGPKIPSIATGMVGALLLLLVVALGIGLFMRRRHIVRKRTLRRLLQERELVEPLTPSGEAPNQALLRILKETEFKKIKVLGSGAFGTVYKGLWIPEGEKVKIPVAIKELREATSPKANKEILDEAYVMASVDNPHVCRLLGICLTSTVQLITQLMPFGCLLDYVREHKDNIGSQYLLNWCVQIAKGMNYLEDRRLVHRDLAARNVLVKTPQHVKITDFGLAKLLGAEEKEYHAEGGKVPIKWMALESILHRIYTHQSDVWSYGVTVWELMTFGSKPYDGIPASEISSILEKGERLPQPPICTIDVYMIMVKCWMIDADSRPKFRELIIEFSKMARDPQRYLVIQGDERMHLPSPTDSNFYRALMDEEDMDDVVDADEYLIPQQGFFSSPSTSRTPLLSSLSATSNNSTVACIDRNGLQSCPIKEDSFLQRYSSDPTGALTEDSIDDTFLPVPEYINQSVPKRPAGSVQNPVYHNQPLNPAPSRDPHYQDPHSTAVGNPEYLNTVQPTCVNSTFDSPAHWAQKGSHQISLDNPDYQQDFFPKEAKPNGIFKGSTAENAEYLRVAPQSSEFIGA

For the compound `CC(C)C(C(=O)Nc1cc(-c2[nH]c3ccc(F)nc3c2-c2ccccn2)ccn1)c1ccc(F)cc1` (single isomer, unassigned) [US20230339939, Example 24], the figures for the IC50 in assay [1], in assay [2] and in assay [3] were 4.79 nM, 43 nM and 10.4 nM, respectively.

Consider `O=C(Cc1ccc(F)cc1)Nc1cc(-c2[nH]c3c(CC4CC4)cc(F)nc3c2-c2ccccn2)ccn1` [US20230339939, Example 37], for which the 50% inhibitory concentration (IC50) was 4 nM in assay [1], 9.53 nM in assay [2], > 20000 nM in assay [4] and 5.76 nM in assay [3].
